# Data as given in PubChem BioAssay AID588631 (NMMLSC, 2011).
# Active and inactive are the calls of the source. The rule behind the calls is not given here.
# Biological target: Ras-related protein Rab7 wild type (dog)
# Experiment: blockers of fluorescent GTP uptake by Rab7 – biochemical, dog Rab7, bead multiplex flow cytometry, round 2, SAR follow-up (AID 588631)
# Conditions: Bead-based multiplex flow cytometry, at 100 µM (top of the series)
row,percent response (remaining binding),SMILES
1,inactive,CC(C)(C)C1Cc2c(sc(NC(=S)NC(=O)c3ccccc3)c2C(=O)O)CO1 (stereo not given)
2,inactive,CC1(C)Cc2c(sc(NC(=S)Nc3ccccc3)c2C(=O)O)CO1

# Same assay, conditions: Bead-based multiplex flow cytometry, fluorescent GTP binding
row,SMILES,EC50
1,COc1cccc(C(=O)NC(=S)Nc2sc3c(c2C(=O)O)CC(C)(C)OC3)c1,295 nM
2,CC1(C)Cc2c(sc(NC(=S)NC(=O)c3cccs3)c2C(=O)O)CO1,25 nM
3,CC1(C)Cc2c(sc(NC(=S)NC(=O)c3cccc(Br)c3)c2C(=O)O)CO1,3990 nM
4,CC1(C)Cc2c(sc(NC(=S)NC(=O)c3ccco3)c2C(=O)O)CO1,74 nM
5,CC1(C)Cc2c(sc(NC(=S)NC(=O)c3ccccc3Br)c2C(=O)O)CO1,1210 nM
6,CC1(C)Cc2c(sc(NC(=S)NC(=O)C3CCCCC3)c2C(=O)O)CO1,809 nM
7,Cc1ccc(C(=O)NC(=S)Nc2sc3c(c2C(=O)O)CC(C)(C)OC3)cc1,135 nM
8,COc1ccccc1C(=O)NC(=S)Nc1sc2c(c1C(=O)O)CC(C)(C)OC2,1120 nM
9,CC1(C)Cc2c(sc(NC(=S)NC(=O)c3ccc(Br)cc3)c2C(=O)O)CO1,496 nM
10,O=C(NC(=S)Nc1sc2c(c1C(=O)O)CC1(CCCC1)OC2)c1ccccc1,35 nM
11,CC1(C)Cc2c(sc(NC(=S)NC(=O)c3cccc(F)c3)c2C(=O)O)CO1,415 nM
12,CC1(C)CCc2sc(NC(=S)NC(=O)c3ccccc3)c(C(=O)O)c2C1,46 nM

# More lines, now with the values ahead:
row,EC50,SMILES
1,1160 nM,Cc1cccc(C(=O)NC(=S)Nc2sc3c(c2C(=O)O)CC(C)(C)OC3)c1
2,411 nM,Cc1ccccc1C(=O)NC(=S)Nc1sc2c(c1C(=O)O)CC(C)(C)OC2
3,95 nM,CC1(C)Cc2c(sc(NC(=S)NC(=O)c3ccc(F)cc3)c2C(=O)O)CO1
4,37 nM,CCC1(C)Cc2c(sc(NC(=S)NC(=O)c3ccccc3)c2C(=O)O)CO1 (stereo not given)
5,221 nM,COc1ccc(C(=O)NC(=S)Nc2sc3c(c2C(=O)O)CC(C)(C)OC3)cc1
6,318 nM,CC1(C)Cc2c(sc(NC(=S)NC(=O)c3ccccc3F)c2C(=O)O)CO1
